Patent US6054282A, “Method for detecting biological interactions especially in receptor binding assays” (Zeneca Limited, priority 1993, dated 2000)

Test system: human calcitonin receptor
Assay: Calcitonin receptor radial partition binding assay, displacement of (3-[125I]iodotyrosyl-22) salmon calcitonin
Settings: 1 micromolar salmon calcitonin; MEL cell membranes with cloned human calcitonin receptor; room temperature, 40 minutes; FIG. 3
Experimental: The lysate was transferred to a glass/Teflon homogeniser and given 10 strokes to ensure cell disruption. The homogenate was centrifuged at 3,000 rpm (1100 g) for 10 minutes at 4 deg.C. […] The low-speed supernatant was removed, and the pellet re-suspended in 10 ml of homogenisation buffer and dispersed with 3×10 second treatments with the Polytron homogeniser, followed by low-speed centifugation as described above. The supernatants from both spins were combined. This was then centrifuged for 30 minutes at 33,000 rpm (100,000 g) at 4 deg C. in an L7 Ultracentrifuge (Beckman) using a Ti75 head. The pellet was re-suspended in 20 mM HEPES, pH 7.4, and re-centrifuged. This pellet was then re-suspended as before and treated with 10 strokes of the glass/Teflon homogeniser.
Protein determination was by the […] method of the Pierce Chemical Co., using their recommended protocol and bovine serum albumin (BSA) as a standard. Membranes were diluted to a stock concentration of 0.08 mg/ml protein, and stored at -70 deg. C.
To a 30×43 cm glass fibre filter mat (Tomtec RG) was added 4 microlitres of receptor preparation to 2,304 positions in a rectangular array. This was allowed to dry for 2 hours at room temperature. […]
The mat was allowed to dry completely and was exposed to a storage phosphor screen (Molecular Dynamics) for 3 hours and analysed using a PhosphorImager SF (Molecular Dynamics).

- inhibition of binding of [125I] salmon calcitonin (central spot, PhosphorImager): full inhibition of binding
Substance: calcitonin [salmon calcitonin]
